In PubChem BioAssay AID1963834 (Molecular Pharmacology Branch, DTP, NCI, 2024):

System: 873145-292-R-J1-PDC complex spheroid viability
Test: Anticancer human tumor 873145-292-R-J1-PDC patient-derived renal clear cell carcinoma cell line growth inhibition [POLQ]
Details: for IC50: curve of first compound; for viability, T/C: stronger effect = lower value
Experimental: Multicellular complex tumor spheroid response to Polymerase (POL) inhibitors (novobiocin, ART-558, RP6685) in combination with a variety of drugs and investigational agents in selected tumor cell lines
The POL inhibitors (novobiocin, ART-558, and RP6685) were evaluated both individually and in combination with standard of care and investigational anticancer small molecules within a complex spheroid model of solid tumors. . Complex spheroids include a stromal component modeled by human endothelial cells (HUVEC) and fibroblasts modeled by human mesenchymal stem cells (MSCs). The concentration ranges selected for each drug and investigational agent were based upon clinically achievable concentrations if the clinical Cmax of the agent was known.
Compounds. The drugs and investigational agents: novobiocin (NSC847541), ART-558 (NSC835418), RP-6685 (NSC848927), peposertib (NSC802822), ceralasertib (NSC780249), elimusertib (NSC800525), camonsertib (NSC841442), AZD-1390 (NSC803789), olaparib (NSC753686), talazoparib (NSC767125), rucaparib (NSC756644), sotorasib (NSC818433), MRTX-1133 (NSC836407), SN-38 (NSC673596), topotecan (NSC609699), epotoside (NSC141540), doxorubicin (NSC123127), gemcitabine (NSC613327), 5-fluorouracil (NSC19893), paclitaxel (NSC125973), vemurafenib (NSC761431), MSA-2 (NSC828583), SN-011 (NSC837082), adavosertib (NSC754352), prexasertib (NSC758257), carboplatin (NSC241240) and oxaliplatin (NSC266046), were obtained from the National Cancer Institute (NCI) Developmental Therapeutics Program Chemical Repository (21). The FDA-approved anticancer drug set is available from the Developmental Therapeutics Program at https://dtp.cancer.gov/organization/dscb/obtaining/. […] The stock solutions were prepared in dimethyl sulfoxide (DMSO, Sigma-Aldrich, St. Louis, MO, cat. D2650), except for the platinum compounds which were prepared in saline (Quality Biological, Gaithersburg, MD, cat. 114-055-101), at 800-fold the tested concentration and stored at -70 degrees C prior to their use. All drugs and investigational agents were tested over a range starting from a high concentration at or near the clinical Cmax and decreasing in half-log increments. If the clinical Cmax for an agent had not been determined, the highest concentration tested was 10 microM, except for SN-38, which was tested at a high concentration of 1 microM.
Cell Culture. All cells were maintained in an incubator at 37 degrees C and 5% CO2 with 95% humidity. The PDC lines were cultured according to standard operating procedures established by the NCI PDMR (https://pdmr.cancer.gov). Table 3 of the manuscript, lists the cell lines along with the number of the three cell types plated to form the mct-spheroids and media for tumor cell growth. After thawing, all PDC lines, except 997537-175-T-J1-PDC and 415267-285-R-J2-PDC, were cultured in Matrigel-coated flasks prepared with a working solution of 1X Ham's F-12 nutrient mix, without supplementation (Thermo Fisher Scientific, cat. 11765054), 100 U/mL penicillin-streptomycin (Thermo Fisher Scientific, cat. 15140122), and 2.5% Matrigel (Corning Inc., Corning, NY, cat. 354248) for the first three passages. The two PDC lines 997537-175-T-J1-PDC and 415267-285-R-J2-PDC were cultured on uncoated flasks. The 857933-349-R-J2-PDC line was cultured in 6C/Colon 1B media containing advanced DMEM/F-12 (Thermo Fisher Scientific, cat. 12634028), 10 mM HEPES (Thermo Fisher Scientific, cat. 15630080), 1X GlutaMAX supplement (Thermo Fisher Scientific, cat. 35050061), 0.1 mg/mL primocin (InvivoGen, San Diego, CA, cat. ant-pm-2), 10% defined fetal bovine serum, heat inactivated (HyClone Laboratories Inc., Logan, UT, cat. SH30070.03HI), 50% L-WRN conditioned media (ATCC, cat. CRL-3276), 1.25 mM N-Acetyl-L-cysteine (Sigma-Aldrich, cat. A9165), 10 mM nicotinamide (Sigma-Aldrich, cat. N0636), 1X B-27 supplement (Thermo Fisher Scientific, cat. 17504044), 1X N-2 supplement (Thermo Fisher Scientific, cat. […]
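Also: spheroids exposed to compounds for 7 days before viability readout.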
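For viability, T/C in this document: luminescence signal used as surrogate for viable cell content; 100% = DMSO vehicle control viability.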

## CC(=O)O[C@H]1C(=O)[C@@]2(C)[C@H]([C@H](OC(=O)c3ccccc3)[C@]3(O)C[C@H](OC(=O)[C@H](O)[C@@H](NC(=O)c4ccccc4)c4ccccc4)C(C)=C1C3(C)C)[C@]1(OC(C)=O)CO[C@@H]1C[C@@H]2O + COC1C(OC(N)=O)C(O)C(Oc2ccc3c(O)c(NC(=O)c4ccc(O)c(CC=C(C)C)c4)c(=O)oc3c2C)OC1(C)C
Second compound 0.0316 µM
  IC50: > 3000 nM
Second compound 0.1 µM
  IC50: > 3000 nM
Second compound 0.316 µM
  IC50: > 3000 nM
Second compound 1 µM
  IC50: > 3000 nM
Second compound 3.16 µM
  IC50: > 3000 nM
Second compound 10 µM
  IC50: > 3000 nM
Second compound 0.0316 µM, first compound 0.00949 µM
  viability, T/C: 90.9%
Second compound 0.0316 µM, first compound 0.03 µM
  viability, T/C: 67.2%
Second compound 0.0316 µM, first compound 0.0949 µM
  viability, T/C: 67.1%
Second compound 0.0316 µM, first compound 0.3 µM
  viability, T/C: 61.8%
Second compound 0.0316 µM, first compound 0.949 µM
  viability, T/C: 60.2%
Second compound 0.0316 µM, first compound 3 µM
  viability, T/C: 66.4%
Second compound 0.1 µM, first compound 0.00949 µM
  viability, T/C: 77.6%
Second compound 0.1 µM, first compound 0.03 µM
  viability, T/C: 75.2%
Second compound 0.1 µM, first compound 0.0949 µM
  viability, T/C: 73.9%
Second compound 0.1 µM, first compound 0.3 µM
  viability, T/C: 58.5%
Second compound 0.1 µM, first compound 0.949 µM
  viability, T/C: 58.5%
Second compound 0.1 µM, first compound 3 µM
  viability, T/C: 57.3%
Second compound 0.316 µM, first compound 0.00949 µM
  viability, T/C: 79.1%
Second compound 0.316 µM, first compound 0.03 µM
  viability, T/C: 73.5%
Second compound 0.316 µM, first compound 0.0949 µM
  viability, T/C: 66.6%
Second compound 0.316 µM, first compound 0.3 µM
  viability, T/C: 60.9%
Second compound 0.316 µM, first compound 0.949 µM
  viability, T/C: 55.7%
Second compound 0.316 µM, first compound 3 µM
  viability, T/C: 60.1%
Second compound 1 µM, first compound 0.00949 µM
  viability, T/C: 84%
Second compound 1 µM, first compound 0.03 µM
  viability, T/C: 77.7%
Second compound 1 µM, first compound 0.0949 µM
  viability, T/C: 74.8%
Second compound 1 µM, first compound 0.3 µM
  viability, T/C: 59%
Second compound 1 µM, first compound 0.949 µM
  viability, T/C: 57.6%
Second compound 1 µM, first compound 3 µM
  viability, T/C: 57.8%
Second compound 3.16 µM, first compound 0.00949 µM
  viability, T/C: 77.4%
Second compound 3.16 µM, first compound 0.03 µM
  viability, T/C: 72.5%
Second compound 3.16 µM, first compound 0.0949 µM
  viability, T/C: 70.1%
Second compound 3.16 µM, first compound 0.3 µM
  viability, T/C: 57.9%
Second compound 3.16 µM, first compound 0.949 µM
  viability, T/C: 58.1%
Second compound 3.16 µM, first compound 3 µM
  viability, T/C: 58.3%
Second compound 10 µM, first compound 0.00949 µM
  viability, T/C: 78.4%
Second compound 10 µM, first compound 0.03 µM
  viability, T/C: 69.1%
Second compound 10 µM, first compound 0.0949 µM
  viability, T/C: 62.3%
Second compound 10 µM, first compound 0.3 µM
  viability, T/C: 55.7%
Second compound 10 µM, first compound 0.949 µM
  viability, T/C: 64.1%
Second compound 10 µM, first compound 3 µM
  viability, T/C: 58.6%

## Nc1ccn(C2OC(CO)C(O)C2(F)F)c(=O)n1 (centres undefined) + COC1C(OC(N)=O)C(O)C(Oc2ccc3c(O)c(NC(=O)c4ccc(O)c(CC=C(C)C)c4)c(=O)oc3c2C)OC1(C)C
Second compound 0.0316 µM
  IC50: > 10000 nM
Second compound 0.1 µM
  IC50: 1090 nM
Second compound 0.316 µM
  IC50: 243 nM
Second compound 1 µM
  IC50: 1280 nM
Second compound 3.16 µM
  IC50: 360 nM
Second compound 10 µM
  IC50: > 10000 nM
Second compound 0.0316 µM, first compound 0.0316 µM
  viability, T/C: 59.6%
Second compound 0.0316 µM, first compound 0.1 µM
  viability, T/C: 46.6%
Second compound 0.0316 µM, first compound 0.316 µM
  viability, T/C: 52.2%
Second compound 0.0316 µM, first compound 1 µM
  viability, T/C: 46.5%
Second compound 0.0316 µM, first compound 3.16 µM
  viability, T/C: 54.8%
Second compound 0.0316 µM, first compound 10 µM
  viability, T/C: 50.9%
Second compound 0.1 µM, first compound 0.0316 µM
  viability, T/C: 51.2%
Second compound 0.1 µM, first compound 0.1 µM
  viability, T/C: 57.5%
Second compound 0.1 µM, first compound 0.316 µM
  viability, T/C: 53.7%
Second compound 0.1 µM, first compound 1 µM
  viability, T/C: 44.2%
Second compound 0.1 µM, first compound 3.16 µM
  viability, T/C: 51%
Second compound 0.1 µM, first compound 10 µM
  viability, T/C: 43.5%
Second compound 0.316 µM, first compound 0.0316 µM
  viability, T/C: 60.8%
Second compound 0.316 µM, first compound 0.1 µM
  viability, T/C: 52.9%
Second compound 0.316 µM, first compound 0.316 µM
  viability, T/C: 47.8%
Second compound 0.316 µM, first compound 1 µM
  viability, T/C: 48.3%
Second compound 0.316 µM, first compound 3.16 µM
  viability, T/C: 51.4%
Second compound 0.316 µM, first compound 10 µM
  viability, T/C: 46%
Second compound 1 µM, first compound 0.0316 µM
  viability, T/C: 57.8%
Second compound 1 µM, first compound 0.1 µM
  viability, T/C: 54.8%
Second compound 1 µM, first compound 0.316 µM
  viability, T/C: 52.7%
Second compound 1 µM, first compound 1 µM
  viability, T/C: 48.8%
Second compound 1 µM, first compound 3.16 µM
  viability, T/C: 49.6%
Second compound 1 µM, first compound 10 µM
  viability, T/C: 48.4%
Second compound 3.16 µM, first compound 0.0316 µM
  viability, T/C: 61.7%
Second compound 3.16 µM, first compound 0.1 µM
  viability, T/C: 60.2%
Second compound 3.16 µM, first compound 0.316 µM
  viability, T/C: 50.3%
Second compound 3.16 µM, first compound 1 µM
  viability, T/C: 43.6%
Second compound 3.16 µM, first compound 3.16 µM
  viability, T/C: 50.7%
Second compound 3.16 µM, first compound 10 µM
  viability, T/C: 52.5%
Second compound 10 µM, first compound 0.0316 µM
  viability, T/C: 59.2%
Second compound 10 µM, first compound 0.1 µM
  viability, T/C: 52.4%
Second compound 10 µM, first compound 0.316 µM
  viability, T/C: 52.2%
Second compound 10 µM, first compound 1 µM
  viability, T/C: 45.6%
Second compound 10 µM, first compound 3.16 µM
  viability, T/C: 53.6%
Second compound 10 µM, first compound 10 µM
  viability, T/C: 53.1%
